Reference: PMC9662162 (Insect biochemistry and molecular biology, 2022)
pKd: −log10 of the molar value. Like-named read-outs stand apart in the source and are kept apart here.

Experiments:
[1] = system: AnSt-D7L1; conditions: ref Alvarenga et al., 2010; cited from earlier work
[2] = biological target: AnDar-D7L2 (Anopheles darlingi, UniProt B6DDQ8); experiment: biochemical; format: binding; conditions: for fold difference in binding tightness, serotonin vs tryptamine: ratio of KD values
[3] = biological target: T1, AnAtr-D7L1 (Anopheles atroparvus, UniProt A0A182IRF8); experiment: ITC ligand binding to recombinant AnAtr-D7L1; conditions: for binding observed by ITC (in words): 30°C, 4 μM protein, 40 μM ligand
T1 sequence (A0A182IRF8 24-316): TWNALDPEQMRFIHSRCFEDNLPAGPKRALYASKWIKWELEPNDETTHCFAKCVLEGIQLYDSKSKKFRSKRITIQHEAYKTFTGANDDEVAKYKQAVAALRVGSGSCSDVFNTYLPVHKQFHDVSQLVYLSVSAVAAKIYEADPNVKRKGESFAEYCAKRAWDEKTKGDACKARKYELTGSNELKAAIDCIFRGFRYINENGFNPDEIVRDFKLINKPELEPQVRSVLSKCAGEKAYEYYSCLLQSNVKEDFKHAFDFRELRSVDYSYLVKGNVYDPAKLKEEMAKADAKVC

[4] = system: Platelet-rich plasma; experiment: Platelet aggregation assay in platelet-rich plasma; format: cell-based, human; conditions: protein 0.6, 2 and 6 μM
[5] = biological target: An. gambiae D7L3 (Anopheles gambiae, UniProt A0A1S4HE90); experiment: biochemical; format: binding
[6] = biological target: T2, AeD7S1 (Aedes aegypti, UniProt Q8T9T4); experiment: ITC serotonin binding to recombinant AeD7S1; conditions: 30°C, 4 μM protein, 40 μM serotonin
T2 sequence (Q8T9T4 22-148): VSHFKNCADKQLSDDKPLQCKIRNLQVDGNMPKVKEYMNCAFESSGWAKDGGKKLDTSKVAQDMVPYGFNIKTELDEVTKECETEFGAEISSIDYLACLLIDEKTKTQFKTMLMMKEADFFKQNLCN

[7] = biological target: T3, D7CQS1 (Culex quinquefasciatus, UniProt Q6TS00); experiment: ITC serotonin binding to recombinant D7CQS1; conditions: 30°C, 4 μM protein, 40 μM serotonin
T3 sequence (Q6TS00 19-161): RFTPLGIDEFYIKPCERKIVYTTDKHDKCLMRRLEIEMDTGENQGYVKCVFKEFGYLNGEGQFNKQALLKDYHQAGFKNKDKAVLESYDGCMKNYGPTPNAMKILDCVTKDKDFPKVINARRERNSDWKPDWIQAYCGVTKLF

Chain of AnDar-D7L2 (B6DDQ8 21-317 limits assumed): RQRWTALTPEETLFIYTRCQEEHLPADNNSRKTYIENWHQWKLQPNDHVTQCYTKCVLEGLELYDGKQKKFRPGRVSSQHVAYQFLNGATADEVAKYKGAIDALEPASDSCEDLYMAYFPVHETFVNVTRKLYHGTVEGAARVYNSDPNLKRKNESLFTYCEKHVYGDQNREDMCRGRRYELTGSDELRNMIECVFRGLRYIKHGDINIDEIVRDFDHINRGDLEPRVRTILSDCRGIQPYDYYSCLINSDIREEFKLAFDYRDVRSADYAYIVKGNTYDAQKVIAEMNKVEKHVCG
Chain of An. gambiae D7L3 (A0A1S4HE90 27-354 limits assumed): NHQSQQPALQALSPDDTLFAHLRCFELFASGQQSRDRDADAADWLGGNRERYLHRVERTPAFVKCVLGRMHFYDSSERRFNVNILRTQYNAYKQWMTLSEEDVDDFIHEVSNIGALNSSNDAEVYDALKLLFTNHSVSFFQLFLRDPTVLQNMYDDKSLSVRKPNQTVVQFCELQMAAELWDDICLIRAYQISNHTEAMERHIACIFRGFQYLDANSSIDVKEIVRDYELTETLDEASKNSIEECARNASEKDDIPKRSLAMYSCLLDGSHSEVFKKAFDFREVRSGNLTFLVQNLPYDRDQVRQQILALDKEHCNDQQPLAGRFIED

For CCCCC[C@H](O)/C=C/[C@@H]1[C@@H](C/C=C\CCCC(=O)O)[C@H]2CO[C@@H]1C2 [U46619], the “binding (in words)” value [1] is listed as “ability to bind”, the “binding observed by ITC (in words)” value [2] is listed as “high affinity” and the “binding observed by ITC (in words)” value [3] is listed as “does not bind”.

For CNC[C@H](O)c1ccc(O)c(O)c1 [epinephrine], the “binding observed by ITC (in words)” value [2] was “No detectable binding”.

With CCCCC/C=C\C[C@@H](O)/C=C/C=C/C=C\[C@@H](O)CCCC(=O)O [LTB4] the “binding observed by ITC (in words)” value [2] was “unable to bind” and the “binding observed by ITC (in words)” value [3] was “No binding was detected”.

For CCCCC[C@H](O)/C=C/C=C\C/C=C\C/C=C\CCCC(=O)O [15-HETE], the “binding observed by ITC (in words)” value [3] was “No binding was detected”.

In the case of NCC(O)c1ccc(O)cc1 (racemic) [octopamine, (±)-octopamine], the “binding observed by ITC (in words)” value ([2]; ITC, 30°C) was “measurable”.

With NCCc1ccc(O)c(O)c1 [dopamine] the “binding observed by ITC (in words)” value [2] was “measurable”.

For CCCCC/C=C\C\C=C/C=C/C=C/[C@@H](SC[C@H](N)C(=O)O)[C@@H](O)CCCC(=O)O [LTE4], the “binding observed by ITC (in words)” value [2] was “high affinity”.

In the case of CCCCC/C=C\C\C=C/C=C/C=C/[C@@H](SC[C@H](N)C(=O)NCC(=O)O)[C@@H](O)CCCC(=O)O [LTD4], the “binding observed by ITC (in words)” value [2] was “high affinity”.

For “AnDar-D7L2: recombinant two-domain D7 long form salivary protein from Anopheles darlingi (EU934268.1)”, the “effect on ADP-induced platelet aggregation” value ([4]; agonist ADP) was “did not inhibit”, the “effect on platelet aggregation induced by U46619” value ([4]; agonist U46619) was “inhibits” and the “effect on platelet aggregation induced by arachidonic acid (AA)” value ([4]; agonist arachidonic acid) was “inhibits”. The “effect on epinephrine-induced platelet aggregation” value ([4]; agonist epinephrine) was “did not inhibit” and the “effect on platelet aggregation induced by collagen” value ([4]; collagen at low concentrations, 1 min preincubation) was “inhibits”.

For NCCc1c[nH]cn1 [histamine], the pKd [5] was 5.82 and the “binding observed by ITC (in words)” value [2] was “No detectable binding”.

For CCCCC[C@H](O)/C=C/[C@@H]1[C@@H](C/C=C\CCCC(=O)O)[C@@H](O)C[C@H]1O [PGF2α], the “binding observed by ITC (in words)” value [3] was “No binding was detected”.

With NC[C@H](O)c1ccc(O)c(O)c1 [norepinephrine, L(+)-norepinephrine] the pKd [5] was 5.60 and the “binding observed by ITC (in words)” value ([2]; ITC, 30°C) was “measurable”.

With NCCc1c[nH]c2ccccc12 [tryptamine] the pKd [2] was 6.29, the “fold difference in binding tightness, serotonin vs tryptamine” value ([2]; ITC) was 30 fold and the “binding observed by ITC (in words)” value [3] was “equally high affinity”.

With CCCCC/C=C\C\C=C/C=C/C=C/[C@@H](SC[C@H](NC(=O)CC[C@H](N)C(=O)O)C(=O)NCC(=O)O)[C@@H](O)CCCC(=O)O [LTC4] the “binding observed by ITC (in words)” value [2] was “high affinity”.

For Nc1ncnc2c1ncn2[C@@H]1O[C@H](COP(=O)(O)OP(=O)(O)O)[C@@H](O)[C@H]1O [ADP], the “binding observed by ITC (in words)” value ([5]; ITC, 30°C, 4 μM protein, 40 μM ligand) was “none” and the “binding observed by ITC (in words)” value ([2]; ITC, 30°C) was “inability to bind”.

In the case of NCCc1c[nH]c2ccc(O)cc12 [serotonin], the pKd [5] is listed as 7.66, the “binding (in words)” value [1] is listed as “does not bind” and the pKd [2] is listed as 7.77. The “fold difference in binding tightness, serotonin vs tryptamine” value ([2]; ITC) was 30 fold, the pKd [3] was ~8.52 and the “serotonin binding by ITC (in words)” value [6] was “Lack of serotonin binding”. The “serotonin binding by ITC (in words)” value [7] was “Lack of serotonin binding”.
